Experimental data published in PMC4581874 (PLoS ONE, 2015).
Entries after “also recorded” stand apart in the source; their conditions may differ.

Assays:
EGFR = EGFR (Homo sapiens, UniProt P00533); experiment: In vitro kinase assay, EGFR; format: biochemical; details: for IC50: in vitro kinase assay, mean values; for inhibition at 1 µM: mean ± S.D., read-out: % inhibition at 1 μM, EGFR(h)
Protocol: All kinase assays were carried out using KinaseProfiler^TM and IC50 Profiler^TM (Millipore UK Ltd., Dundee, UK. Now Eurofins Scientific, Dundee, UK). All IC50 data were presented as the mean values.

VEGFR-2 = target: T1, VEGFR-2 (Homo sapiens, UniProt P35968); experiment: In vitro kinase assay, VEGFR-2; format: biochemical; details: for IC50: in vitro kinase assay; for inhibition at 1 µM: mean ± S.D., read-out: % inhibition at 1 μM, VEGFR-2 (h)
T1 construct: purchased Millipore UK Ltd., Dundee, UK (now Eurofins Scientific); KinaseProfiler / IC50 Profiler service
T1 sequence (P35968 20-1356): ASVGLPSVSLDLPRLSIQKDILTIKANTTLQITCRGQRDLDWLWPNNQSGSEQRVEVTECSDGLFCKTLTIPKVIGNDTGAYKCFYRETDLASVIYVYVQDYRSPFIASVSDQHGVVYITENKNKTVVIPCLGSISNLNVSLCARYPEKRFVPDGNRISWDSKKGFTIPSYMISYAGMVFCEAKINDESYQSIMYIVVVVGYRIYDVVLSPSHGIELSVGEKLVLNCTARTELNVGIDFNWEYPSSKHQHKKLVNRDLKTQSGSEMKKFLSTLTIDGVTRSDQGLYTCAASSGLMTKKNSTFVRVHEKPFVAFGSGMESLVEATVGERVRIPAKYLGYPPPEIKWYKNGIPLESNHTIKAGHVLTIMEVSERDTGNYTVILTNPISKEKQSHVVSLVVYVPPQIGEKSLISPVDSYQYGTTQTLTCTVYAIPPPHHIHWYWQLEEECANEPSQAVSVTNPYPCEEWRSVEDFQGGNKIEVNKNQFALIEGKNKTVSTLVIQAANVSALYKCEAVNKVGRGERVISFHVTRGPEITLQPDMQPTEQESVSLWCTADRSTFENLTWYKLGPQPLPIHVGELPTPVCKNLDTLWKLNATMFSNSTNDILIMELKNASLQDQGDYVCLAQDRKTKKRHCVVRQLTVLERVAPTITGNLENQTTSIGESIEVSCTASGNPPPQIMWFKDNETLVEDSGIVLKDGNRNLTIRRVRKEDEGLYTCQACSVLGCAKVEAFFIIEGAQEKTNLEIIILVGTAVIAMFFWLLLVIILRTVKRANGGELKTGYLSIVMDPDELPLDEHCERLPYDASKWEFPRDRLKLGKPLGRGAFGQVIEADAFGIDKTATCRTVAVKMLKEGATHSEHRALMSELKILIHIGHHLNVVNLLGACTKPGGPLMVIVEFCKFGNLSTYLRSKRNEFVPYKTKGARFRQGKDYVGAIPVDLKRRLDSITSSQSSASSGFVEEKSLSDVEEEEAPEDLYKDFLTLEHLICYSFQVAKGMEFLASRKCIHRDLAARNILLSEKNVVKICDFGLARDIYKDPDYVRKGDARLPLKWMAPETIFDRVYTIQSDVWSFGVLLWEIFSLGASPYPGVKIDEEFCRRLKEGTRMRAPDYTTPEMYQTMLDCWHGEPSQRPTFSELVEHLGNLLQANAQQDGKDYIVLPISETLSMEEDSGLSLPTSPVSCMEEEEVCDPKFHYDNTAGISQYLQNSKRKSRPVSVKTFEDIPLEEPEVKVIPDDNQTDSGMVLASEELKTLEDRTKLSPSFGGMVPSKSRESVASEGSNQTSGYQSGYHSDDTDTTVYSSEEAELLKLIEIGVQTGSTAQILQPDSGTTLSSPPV
Protocol: (§1) All kinase assays were carried out using KinaseProfiler^TM and IC50 Profiler^TM (Millipore UK Ltd., Dundee, UK. Now Eurofins Scientific, Dundee, UK). All IC50 data were presented as the mean values. The Curves obtained to determine IC50 values were shown in Supporting Information (S1 Fig).

HUVECs [1] = experiment: HUVEC viability assay (cytotoxicity); format: cell-based, human; details: 24 hours
Protocol: HCC827 cells were purchased from the American Type Culture Collection (ATCC, Manassas, VA, USA). Cells were grown in RPMI 1640 (Welgene Inc., Daegu, Republic of Korea) supplemented with 10% fetal bovine serum (FBS) (Welgene Inc.) and 1% penicillin-streptomycin (Gibco®, Life Technologies, Carlsbad, CA, USA) in a humidified 5% CO2 atmosphere at 37°C. Human umbilical vein endothelial cells (HUVECs, ScienCell Research Laboratories, Carlsbad, CA, USA) were cultured in endothelial growth medium-2 (EGM-2; Lonza, Walkersville, MD, USA) from passages 3 to 6.
For the HUVEC viability assay, HUVECs were treated with phosphate-buffered saline (PBS) or the indicated concentrations of VEGF inhibitors in EGM-2 medium for 24 hours. After the cells were washed with PBS, they were counted using an inverted light microscope (Nikon Eclipse Ti-U; Nikon Corp., Tokyo, Japan) in 5 random fields from each well.

HUVECs [2] = experiment: VEGF-induced tube formation assay; format: cell-based, human; details: VEGF 50 ng/mL, compound 1 μg/mL
Protocol: For analyzing of the antagonistic response to VEGF, tube formation, scratch wound migration, and cell proliferation assays were performed after the exposure of HUVECs to 50 ng/mL VEGF-A (R&D Systems, Minneapolis, MN), which induced a significant angiogenic response. For the cell proliferation assays, cells were incubated overnight in endothelial basal media (EBM; Lonza, Walkersville, MD, USA) containing 0.5% FBS or supplemented with VEGF-A and/or VEGF inhibitors. The cells were washed with PBS and counted in 4 random microscope fields. The tube formation assay was performed by seeding cells on Matrigel-coated plates (BD Bioscience, Bedford, MA, USA) and incubating in EBM containing 0.5% FBS or supplemented with VEGF-A and/or VEGF inhibitors. After overnight incubation, tubule networks were quantified by measuring the tubule length in 4 random microscope fields. For the analysis of scratch wound migration, confluent cell monolayers grown on 6-well plates were scratched using a micropipette tip. […] Cell migration was observed by optical microscopy and quantified by measuring the number of cells that had migrated from the wound edges.
In (A) and (B), the number of cells was expressed as the fold change with respect to the number of cells seeded at day 0. […]

HCC827 cells = experiment: HCC827 cell viability assay; format: cell-based; details: Homo sapiens, 72 h, read-out: HCC827 IC50 (anti-proliferative activity)
Protocol: HCC827 cells were purchased from the American Type Culture Collection (ATCC, Manassas, VA, USA). […] Human umbilical vein endothelial cells (HUVECs, ScienCell Research Laboratories, Carlsbad, CA, USA) were cultured in endothelial growth medium-2 (EGM-2; Lonza, Walkersville, MD, USA) from passages 3 to 6.
After a 24-hour incubation, the cells were treated with a series of test compound dilutions for 72 hours. Cell viability was assessed using EZ-Cytox (Daeil Lab Service, Seoul, South Korea) according to the manufacturer’s instructions.
Cells were incubated for 72 h with a range of concentrations of MKP101, and cell viability was measured using the WST-1 assay. […] Western blot analysis using antibodies to phosphorylated and total EGFR from a representative experiment is shown. Cells were incubated for 3 h at the indicated concentration. (C) Graph showing the relative intensities of the total and phosphorylated EGFR as determined by band densitometry. IC50, half-maximal inhibitory concentration.

EGFR (L858R) = target: T2, EGFR (L858R) (Homo sapiens, UniProt P00533, L858R); experiment: In vitro kinase assay, EGFR (L858R); format: biochemical; details: 1 μM, mean ± S.D.; read-out: % inhibition at 1 μM, EGFR(L858R)(h)
T2 construct: purchased Millipore UK Ltd., Dundee, UK (now Eurofins Scientific); KinaseProfiler / IC50 Profiler service
Protocol: as §1

FGFR1 = target: T3, FGFR1 (Homo sapiens, UniProt P11362); experiment: In vitro kinase assay, FGFR1; format: biochemical; details: 1 μM, mean ± S.D.; read-out: % inhibition at 1 μM, FGFR1 (h)
T3 construct: purchased Millipore UK Ltd., Dundee, UK (now Eurofins Scientific); KinaseProfiler / IC50 Profiler service
Protocol: as §1

FGFR3 = target: T4, FGFR3 (Homo sapiens, UniProt P22607); experiment: In vitro kinase assay, FGFR3; format: biochemical; details: 1 μM, mean ± S.D.; read-out: % inhibition at 1 μM, FGFR3 (h)
T4 construct: purchased Millipore UK Ltd., Dundee, UK (now Eurofins Scientific); KinaseProfiler / IC50 Profiler service
Protocol: as §1

VEGFR-1 = target: T5, VEGFR-1 (Homo sapiens, UniProt P17948); experiment: In vitro kinase assay, VEGFR-1; format: biochemical; details: 1 μM, mean ± S.D.; read-out: % inhibition at 1 μM, VEGFR-1 (h)
T5 construct: purchased Millipore UK Ltd., Dundee, UK (now Eurofins Scientific); KinaseProfiler / IC50 Profiler service
Protocol: as §1

VEGFR-3 = target: T6, VEGFR-3 (Homo sapiens, UniProt P35916); experiment: In vitro kinase assay, VEGFR-3; format: biochemical; details: 1 μM, mean ± S.D.; read-out: % inhibition at 1 μM, VEGFR-3 (h)
T6 construct: purchased Millipore UK Ltd., Dundee, UK (now Eurofins Scientific); KinaseProfiler / IC50 Profiler service
T6 sequence (P35916 25-1363): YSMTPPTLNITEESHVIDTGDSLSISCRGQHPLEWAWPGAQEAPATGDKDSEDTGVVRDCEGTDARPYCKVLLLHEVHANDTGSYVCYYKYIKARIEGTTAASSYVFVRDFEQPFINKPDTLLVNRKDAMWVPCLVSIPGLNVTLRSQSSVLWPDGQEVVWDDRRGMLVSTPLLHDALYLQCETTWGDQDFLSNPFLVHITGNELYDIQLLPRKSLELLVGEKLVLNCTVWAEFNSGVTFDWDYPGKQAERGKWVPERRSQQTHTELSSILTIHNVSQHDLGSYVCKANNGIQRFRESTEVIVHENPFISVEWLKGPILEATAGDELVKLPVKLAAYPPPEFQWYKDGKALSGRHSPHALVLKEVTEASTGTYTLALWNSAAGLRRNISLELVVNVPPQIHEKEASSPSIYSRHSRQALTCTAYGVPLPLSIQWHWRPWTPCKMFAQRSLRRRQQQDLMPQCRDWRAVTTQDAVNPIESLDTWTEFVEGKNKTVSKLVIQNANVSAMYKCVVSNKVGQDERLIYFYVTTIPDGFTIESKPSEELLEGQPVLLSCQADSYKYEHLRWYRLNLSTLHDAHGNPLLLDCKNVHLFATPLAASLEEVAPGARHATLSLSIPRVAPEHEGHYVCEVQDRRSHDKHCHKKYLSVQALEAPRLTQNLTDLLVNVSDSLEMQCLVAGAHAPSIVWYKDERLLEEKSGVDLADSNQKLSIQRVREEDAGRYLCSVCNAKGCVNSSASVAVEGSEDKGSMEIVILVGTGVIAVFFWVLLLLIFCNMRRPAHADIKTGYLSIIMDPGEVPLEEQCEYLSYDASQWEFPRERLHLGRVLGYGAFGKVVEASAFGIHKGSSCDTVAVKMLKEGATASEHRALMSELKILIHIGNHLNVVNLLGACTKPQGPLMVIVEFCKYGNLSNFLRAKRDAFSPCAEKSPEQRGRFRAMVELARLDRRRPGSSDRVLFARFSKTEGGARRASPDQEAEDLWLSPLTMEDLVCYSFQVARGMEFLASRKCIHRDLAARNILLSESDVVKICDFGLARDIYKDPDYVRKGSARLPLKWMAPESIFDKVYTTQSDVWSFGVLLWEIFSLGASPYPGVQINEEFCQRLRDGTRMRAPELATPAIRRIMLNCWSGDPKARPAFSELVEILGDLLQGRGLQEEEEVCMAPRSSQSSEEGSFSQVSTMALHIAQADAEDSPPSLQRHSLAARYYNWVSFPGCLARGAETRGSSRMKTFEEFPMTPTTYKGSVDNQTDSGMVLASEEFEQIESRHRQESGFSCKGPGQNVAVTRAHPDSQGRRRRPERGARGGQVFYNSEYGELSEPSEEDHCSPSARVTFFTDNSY
Protocol: as §1

PDGFRα = target: T7, PDGFRα (Homo sapiens, UniProt P16234); experiment: In vitro kinase assay, PDGFRα; format: biochemical; details: 1 μM, mean ± S.D.; read-out: % inhibition at 1 μM, PDGFRα (h)
T7 construct: purchased Millipore UK Ltd., Dundee, UK (now Eurofins Scientific); KinaseProfiler / IC50 Profiler service
T7 sequence (P16234 24-1089): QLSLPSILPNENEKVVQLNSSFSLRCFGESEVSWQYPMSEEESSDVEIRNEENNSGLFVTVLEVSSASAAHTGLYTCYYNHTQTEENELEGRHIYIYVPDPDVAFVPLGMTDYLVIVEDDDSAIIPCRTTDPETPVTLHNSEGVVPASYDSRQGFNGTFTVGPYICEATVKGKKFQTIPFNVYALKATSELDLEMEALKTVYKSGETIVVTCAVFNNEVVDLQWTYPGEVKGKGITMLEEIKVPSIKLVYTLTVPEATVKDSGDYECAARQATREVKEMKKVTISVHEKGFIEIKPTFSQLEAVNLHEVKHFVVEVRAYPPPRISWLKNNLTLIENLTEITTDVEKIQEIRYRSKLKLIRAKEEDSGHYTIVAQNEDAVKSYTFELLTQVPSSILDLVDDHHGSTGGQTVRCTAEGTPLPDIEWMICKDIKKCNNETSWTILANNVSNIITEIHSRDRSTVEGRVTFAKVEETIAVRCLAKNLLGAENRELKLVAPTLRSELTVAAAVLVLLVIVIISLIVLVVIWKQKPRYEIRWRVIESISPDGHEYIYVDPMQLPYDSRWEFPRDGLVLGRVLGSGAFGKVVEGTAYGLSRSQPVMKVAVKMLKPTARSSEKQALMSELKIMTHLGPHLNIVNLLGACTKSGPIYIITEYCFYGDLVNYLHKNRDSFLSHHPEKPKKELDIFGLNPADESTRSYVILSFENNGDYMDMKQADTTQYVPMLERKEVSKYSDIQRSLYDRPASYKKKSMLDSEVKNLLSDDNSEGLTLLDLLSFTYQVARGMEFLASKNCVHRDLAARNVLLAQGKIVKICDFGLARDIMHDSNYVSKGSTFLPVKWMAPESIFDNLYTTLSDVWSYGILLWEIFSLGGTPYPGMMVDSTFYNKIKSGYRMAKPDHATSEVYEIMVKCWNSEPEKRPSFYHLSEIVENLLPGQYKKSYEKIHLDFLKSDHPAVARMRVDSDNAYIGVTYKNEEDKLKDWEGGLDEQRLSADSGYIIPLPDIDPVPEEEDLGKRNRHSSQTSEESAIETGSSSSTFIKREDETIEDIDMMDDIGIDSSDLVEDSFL
Protocol: as §1

PDGFRβ = target: T8, PDGFRβ (Homo sapiens, UniProt P09619); experiment: In vitro kinase assay, PDGFRβ; format: biochemical; details: 1 μM, mean ± S.D.; read-out: % inhibition at 1 μM, PDGFRβ (h)
T8 construct: purchased Millipore UK Ltd., Dundee, UK (now Eurofins Scientific); KinaseProfiler / IC50 Profiler service
T8 sequence (P09619 33-1106): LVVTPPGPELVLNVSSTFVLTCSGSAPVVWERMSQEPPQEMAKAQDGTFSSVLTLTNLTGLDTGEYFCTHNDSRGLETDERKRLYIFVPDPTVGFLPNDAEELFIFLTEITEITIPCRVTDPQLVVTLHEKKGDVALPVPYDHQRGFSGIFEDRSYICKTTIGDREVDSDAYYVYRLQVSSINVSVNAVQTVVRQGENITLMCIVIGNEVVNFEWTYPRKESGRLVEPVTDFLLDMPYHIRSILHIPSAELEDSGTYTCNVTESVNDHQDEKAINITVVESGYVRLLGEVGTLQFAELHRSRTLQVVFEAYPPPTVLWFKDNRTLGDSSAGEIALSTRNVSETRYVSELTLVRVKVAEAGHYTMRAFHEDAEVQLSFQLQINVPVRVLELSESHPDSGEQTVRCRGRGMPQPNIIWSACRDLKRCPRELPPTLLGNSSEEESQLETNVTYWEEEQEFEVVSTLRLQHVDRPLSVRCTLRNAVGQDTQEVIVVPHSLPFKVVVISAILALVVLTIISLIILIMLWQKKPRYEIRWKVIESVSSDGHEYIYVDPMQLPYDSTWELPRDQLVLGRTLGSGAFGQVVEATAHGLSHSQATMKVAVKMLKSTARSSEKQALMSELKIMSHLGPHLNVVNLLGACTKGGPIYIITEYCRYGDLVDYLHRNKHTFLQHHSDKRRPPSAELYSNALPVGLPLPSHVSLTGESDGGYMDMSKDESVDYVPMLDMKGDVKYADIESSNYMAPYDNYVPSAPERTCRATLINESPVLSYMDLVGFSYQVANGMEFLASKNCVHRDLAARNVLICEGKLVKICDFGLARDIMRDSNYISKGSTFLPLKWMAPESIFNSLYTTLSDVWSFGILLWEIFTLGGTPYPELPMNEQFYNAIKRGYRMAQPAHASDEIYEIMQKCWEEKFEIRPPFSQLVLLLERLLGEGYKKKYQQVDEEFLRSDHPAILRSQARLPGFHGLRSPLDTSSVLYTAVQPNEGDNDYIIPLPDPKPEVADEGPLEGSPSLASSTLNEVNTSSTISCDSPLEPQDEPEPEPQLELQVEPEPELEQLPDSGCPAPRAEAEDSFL
Protocol: as §1

cKit = target: T9, cKit (Homo sapiens, UniProt P10721); experiment: In vitro kinase assay, cKit; format: biochemical; details: 1 μM, mean ± S.D.; read-out: % inhibition at 1 μM, cKit(h)
T9 construct: purchased Millipore UK Ltd., Dundee, UK (now Eurofins Scientific); KinaseProfiler / IC50 Profiler service
Protocol: as §1

SMILES | IC50 (EGFR) | IC50 (VEGFR-2) | inhibition at 1 µM (EGFR) | also measured
CN(c1ccc2[nH]ccc2c1)c1cc(Nc2ccc(N3CCOCC3)cc2)ncn1 [MKP119] | 35 nM | > 3000 nM |  | 
Cc1ccc(Nc2nccc(N(C)c3ccc4c(C)n(C)nc4c3)n2)cc1S(N)(=O)=O [Pazopanib, 5-[[4-[(2,3-dimethyl-2H-indazol-6-yl)methylamino]-2-pyrimidinyl]amino]-2-methyl-benzenesulfonamide, reference compound] |  |  |  | EGFR inhibition (in words) (EGFR): did not inhibit EGFR; also recorded: no inhibitory effect against EGFR; Cytotoxicity in HUVECs (HUVECs [1]; 1 μg/mL): No cytotoxicity was observed; Cytotoxicity in HUVECs (HUVECs [1]; 5 and 10 μg/mL): significant endothelial cytotoxicity; Effect on VEGF-induced increase in tube formation (HUVECs [2]): significantly inhibited
Cc1ccc(Nc2nccc(N(C)c3ccc4cc[nH]c4c3)n2)cc1S(N)(=O)=O [MKP105] |  |  | 47 ± 2% | IC50 (HCC827 cells): 1460 nM
c1nc(Nc2ccc(N3CCOCC3)cc2)cc(Nc2ccc3[nH]ccc3c2)n1 [MKP118] | 7 nM | 1200 nM |  | 
c1cc(Nc2nccc(Nc3ccc4[nH]ccc4c3)n2)cc(N2CCOCC2)c1 [MKP110] | 180 nM | 30 nM |  | 
Fc1cc(Nc2nccc(Nc3ccc4[nH]ccc4c3)n2)cc(N2CCOCC2)c1 [MKP114] | 610 nM | 41 nM |  | 
Fc1cc(Nc2nccc(Nc3ccc4[nH]ccc4c3)n2)ccc1N1CCOCC1 [MKP113] | 1630 nM | 30 nM |  | 
c1cc(Nc2ccc3[nH]ccc3c2)nc(Nc2ccc(N3CCOCC3)cc2)n1 [MKP109] | 240 nM | 50 nM |  | 
CN(c1ccc2c(ccn2C)c1)c1ccnc(Nc2ccc(N3CCOCC3)cc2)n1 [MKP112] | 10100 nM | 360 nM |  | 
c1cc(Nc2ccc3[nH]ccc3c2)nc(Nc2ccc(OCCN3CCOCC3)cc2)n1 [MKP106] | 210 nM | 20 nM |  | 

Further lines, with some results ahead:

IC50 (EGFR) | IC50 (VEGFR-2) | inhibition at 1 µM (EGFR) | SMILES | also measured
178 nM | 130 nM |  | c1cc(Nc2ccc3[nH]ccc3c2)nc(Nc2ccc(OCCCCN3CCOCC3)cc2)n1 [MKP107] | 
18 nM | 45 nM | 100% | Cc1ccc(Nc2cc(Oc3ccc4[nH]ccc4c3)ncn2)cc1S(N)(=O)=O [MKP123] | inhibition at 1 µM (EGFR (L858R)): 99 ± 1%; inhibition at 1 µM (FGFR1): 20 ± 6%; inhibition at 1 µM (FGFR3): 21 ± 2%; inhibition at 1 µM (VEGFR-1): 99 ± 1%; inhibition at 1 µM (VEGFR-2): 97%; inhibition at 1 µM (VEGFR-3): 100%; inhibition at 1 µM (PDGFRα): 30 ± 3%; inhibition at 1 µM (PDGFRβ): 44 ± 3%; inhibition at 1 µM (cKit): 53 ± 9%
31 nM | 30 nM | 94 ± 2% | COc1ccc(Nc2cc(Oc3ccc4[nH]ccc4c3)ncn2)cc1N1CCOCC1 [MKP121] | inhibition at 1 µM (EGFR (L858R)): 98%; inhibition at 1 µM (FGFR1): 29 ± 5%; inhibition at 1 µM (FGFR3): 13 ± 4%; inhibition at 1 µM (VEGFR-1): 99 ± 2%; inhibition at 1 µM (VEGFR-2): 96%; inhibition at 1 µM (VEGFR-3): 98%; inhibition at 1 µM (PDGFRα): 37 ± 1%; inhibition at 1 µM (PDGFRβ): 48%; inhibition at 1 µM (cKit): 70 ± 3%
10 nM | 32 nM |  | c1nc(Nc2ccc(N3CCOCC3)cc2)cc(Oc2ccc3[nH]ccc3c2)n1 [MKP120] | 
2240 nM | 1570 nM |  | Cn1ccc2cc(Nc3ccnc(Nc4ccc(N5CCOCC5)cc4)n3)ccc21 [MKP111] | 
55 nM |  | 93 ± 2% | Cc1ccc(Nc2nccc(N(C)c3ccc4[nH]cc(C)c4c3)n2)cc1S(N)(=O)=O [MKP102] | IC50 (HCC827 cells): 197 nM
 |  | 42 ± 4% | Cc1cc2cc(N(C)c3ccnc(Nc4ccc(C)c(S(N)(=O)=O)c4)n3)ccc2[nH]1 [MKP103] | IC50 (HCC827 cells): 1630 nM
2040 nM | 20 nM | 35 ± 2% | Cc1ccc(Nc2nccc(Oc3ccc4[nH]ccc4c3)n2)cc1S(N)(=O)=O [MKP122] | inhibition at 1 µM (EGFR (L858R)): 66%; inhibition at 1 µM (FGFR1): 83%; inhibition at 1 µM (FGFR3): 65 ± 4%; inhibition at 1 µM (VEGFR-1): 100%; inhibition at 1 µM (VEGFR-2): 96%; inhibition at 1 µM (VEGFR-3): 100%; inhibition at 1 µM (PDGFRα): 87 ± 1%; inhibition at 1 µM (PDGFRβ): 92%; inhibition at 1 µM (cKit): 99 ± 1%
200 nM | 26 nM |  | CN(c1ccc2[nH]ccc2c1)c1ccnc(Nc2ccc(OCCCCN3CCOCC3)cc2)n1 [MKP108] | 
56 nM | 10 nM |  | COc1ccc(Nc2nccc(Nc3ccc4[nH]ccc4c3)n2)cc1N1CCOCC1 [MKP115] | 
41 nM | 20 nM |  | COc1cc(Nc2nccc(Nc3ccc4[nH]ccc4c3)n2)cc(N2CCOCC2)c1 [MKP116] | 
33 nM | 17 nM |  | COc1cc(Nc2nccc(N(C)c3ccc4[nH]ccc4c3)n2)cc(N2CCOCC2)c1 [MKP117] | 
 |  | 20 ± 4% | Cc1ccc(Nc2nccc(N(C)c3ccc4c(ccn4C)c3)n2)cc1S(N)(=O)=O [MKP104] | IC50 (HCC827 cells): 2680 nM
